Experimental data reported in US12507703B2, “Methods, devices and compositions for preserving human milk” (The Trustees of Princeton University, priority 2023, dated 2025).
Where “and” joins values, the source holds several entries; their conditions need not be identical. Equal values may be shown once.

test system: lipase; test: Lipase/lipolysis assay (EnzChek Lipase Substrate, quenched BODIPY-fatty acid conjugate) on stored human milk; on Lipase (RFU): test concentration or dose not given here

Row | Compound | Lipase (RFU) | Effect on lipase / lipolysis (in words) | Synergistic effect in combination testing (in words)
1 | CC1(C)[C@@H](O)CC[C@]2(C)[C@H]3C(=O)C=C4[C@H]5C[C@@](C)(C(=O)O)CC[C@]5(C)CC[C@@]4(C)[C@]3(C)CC[C@@H]12 [18α-Glycyrrhetinic acid] | 794.4219 RFU | – | –
2 | COc1nccc(N)n1 [Compound 2-O-Methylcytosine] | 1109.623 RFU | – | –
3 | Nc1ccccc1C(=O)C[C@H](N)C(=O)O [L-Kynurenine] | 761.0277 RFU | – | –
4 | CCCCC[C@H](O)/C=C/[C@H]1[C@H](O)CC(=O)[C@@H]1C/C=C\CCCC(=O)O [Prostaglandin E2] | 1264.564 RFU | – | –
5 | C/C(=C\CNc1ncnc2c1ncn2[C@@H]1O[C@H](CO)[C@@H](O)[C@H]1O)CO [trans-Zeatinriboside] | 823.084 RFU | – | –
6 | CC(=O)O[C@H](CC(=O)O)C[N+](C)(C)C.[Cl-] [Acetyl-L-carnitine (hydrochloride)] | 1004.353 RFU | – | –
7 | C[C@H](CC(=O)C[C@@H](C)[C@H]1C[C@H](O)[C@@]2(C)C3=C(C(=O)C[C@]12C)[C@@]1(C)CCC(=O)C(C)(C)[C@@H]1C[C@@H]3O)C(=O)O [Ganoderic acid A] | 685.8921 RFU | – | –
8 | Estrone sulfate (potassium) | 961.3154 RFU | – | –
9 | O=c1cc(-c2ccc(O)cc2)oc2c([C@@H]3O[C@H](CO)[C@@H](O)[C@H](O)[C@H]3O)c(O)c([C@@H]3OC[C@@H](O)[C@H](O)[C@H]3O)c(O)c12 [Vicenin-1] | 1046.904 RFU | – | –
10 | O=C[C@H](O)[C@H]1OC(=O)[C@@H](O)[C@H]1O [D-Glucuronic acid lactone] | 1111.254 RFU | – | –
11 | Cl.N=C(N)NCCC[C@H](N)C(=O)O [L-Arginine (hydrochloride)] | 1273.102 RFU | – | –
12 | CCC1CCC(=O)O1 (centres unmarked) [γ-Hexalactone] | 1020.576 RFU | – | –
13 | O=C(O[C@@H]1Cc2c(O)cc(O)cc2O[C@@H]1c1ccc(O)c(O)c1)c1cc(O)c(O)c(O)c1 [(−)-Epicatechin gallate] | 982.8268 RFU | – | –
14 | Inulin | 793.2721 RFU and 805.6516 RFU and 1006.043 RFU | did not inhibit or slow human milk lipolysis | did not have synergistic effects
15 | C[C@]12CCC(=O)C=C1CC[C@@H]1[C@@H]2[C@@H](O)C[C@]2(C)C(=O)CC[C@@H]12 [11-Beta-hydroxyandrostenedione] | 1190.299 RFU | – | –
16 | O=c1c(O[C@@H]2O[C@H](CO[C@@H]3O[C@H](CO)[C@@H](O)[C@H](O)[C@H]3O)[C@@H](O)[C@H](O)[C@H]2O)c(-c2ccc(O)cc2)oc2cc(O)cc(O)c12 [Kaempferol 3-O-gentiobioside] | 1150.858 RFU | – | –
17 | CCCCCCCCCCCCCCCC(=O)OC[C@H](COP(=O)([O-])OCC[N+](C)(C)C)OC(=O)CCCCCCCCCCCCCCC [DPPC] | 959.6761 RFU | – | –
18 | COc1c(O)cc2oc3cc(O)c(CC=C(C)C)c(O)c3c(=O)c2c1CC=C(C)C [alpha-Mangostin] | 1061.941 RFU | – | –
19 | O=C1O[C@H]2[C@@H]3OC(=O)c4cc(O)c(O)c(O)c4-c4c(O)c(O)c5oc(=O)c6c(c(O)c(O)c7oc(=O)c4c5c76)-c4c(cc(O)c(O)c4O)C(=O)OC[C@H]3OC(O)[C@@H]2OC(=O)c2cc(O)c(O)c(O)c2-c2c1cc(O)c(O)c2O (mixture of isomers) [Punicalagin] | 646.9241 RFU | – | –
20 | CC(C)=CCC[C@H](C)[C@@H]1CC[C@]2(C)C3=C(CC[C@@]12C)[C@@]1(C)CC[C@H](O)C(C)(C)[C@@H]1CC3 [Tirucallol] | 1060.924 RFU | – | –
21 | CC(C)[C@@H]1CC[C@H](C)CC1=O [(+)-Isomenthone] | 807.8808 RFU | – | –
22 | COc1cc2c(CCNC(C)=O)c[nH]c2cc1O [Compound 6-Hydroxymelatonin] | 976.0382 RFU | – | –
23 | OC[C@H]1O[C@H](OC[C@H]2OC(O)(CO)[C@@H](O)[C@@H]2O)[C@H](O)[C@@H](O)[C@@H]1O (some centres unmarked) [Palatinose] | 803.211 RFU | – | –
24 | COc1cc(O[C@@H]2O[C@H](CO[C@@H]3O[C@H](CO)[C@@H](O)[C@H](O)[C@H]3O)[C@@H](O)[C@H](O)[C@H]2O)c2c(O)c3c(=O)oc(C)cc3cc2c1 [Cassiaside C] | 979.0974 RFU | – | –
25 | COc1cc(CCN)ccc1O [Compound 3-Methoxytyramine, 3-Methoxytyramine] | 821.2607 RFU | – | –
26 | O=S(=O)([O-])c1ccc2c(N=Nc3ccc(S(=O)(=O)[O-])c4ccccc34)c(O)c(S(=O)(=O)[O-])cc2c1.[Na+].[Na+].[Na+] [Amaranth] | 987.0531 RFU | – | –
27 | CCCCC/C=C/C=C/C(=O)NCC(C)C [Pellitorine] | 785.2318 RFU and 741.5651 RFU | – | –

Row | Compound | Lipase (RFU) | Effect on lipase / lipolysis (in words) | Synergistic effect in combination testing (in words)
28 | CC(C)=CCC[C@](C)(O[C@@H]1O[C@H](CO)[C@@H](O)[C@H](O)[C@H]1O)[C@H]1CC[C@]2(C)[C@@H]1[C@H](O)C[C@@H]1[C@@]3(C)CC[C@H](O)C(C)(C)[C@@H]3[C@@H](O[C@@H]3O[C@H](CO)[C@@H](O)[C@H](O)[C@H]3O[C@@H]3OC[C@@H](O)[C@H](O)[C@H]3O)C[C@]12C [Notoginsenoside R1] | 899.6021 RFU | – | –
29 | C=C1[C@H]2CC[C@@H]3[C@H]2C(C)(C)CCC[C@]13C [(+)-Longifolene] | 1228.195 RFU | – | –
30 | CC(=O)O[C@@H]1CC[C@@]2(C)[C@@H](CC[C@]3(C)[C@@H]2CC=C2[C@@H]4[C@@H](C)[C@H](C)CC[C@]4(C)CC[C@]23C)[C@@]1(C)C(=O)O [3-Acetyl-beta-boswellic acid] | 752.9436 RFU | – | –
31 | C=C1C(=O)O[C@@H]2[C@H]3C(CO)=CC(=O)C3=C(C)C[C@H](OC(=O)Cc3ccc(O)cc3)[C@@H]12 [Lactupicrin] | 995.7975 RFU | – | –
32 | Cc1cc(O)c(C)c2c1O[C@](C)(CCC[C@H](C)CCC[C@H](C)CCCC(C)C)CC2 (relative stereo) [(rel)-β-Tocopherol] | 1146.301 RFU | – | –
33 | (−)-Epiafzelechin | 915.141 RFU | – | –
34 | Rhamnose | 816.2993 RFU and 1253.305 RFU | – | –
35 | N[C@H](CCC(=O)O)C(=O)O [D-Glutamic Acid] | 1176.72 RFU | – | –
36 | Oc1ccc2c(c1)OCO2 [Sesamol] | 995.7089 RFU | – | –
37 | CC1(C)[C@H](C(=O)[O-])N2C(=O)C[C@H]2S1(=O)=O.[Na+] [Sulbactam (sodium)] | 1191.707 RFU | – | –
38 | CC(C)=CCC[C@](C)(O[C@@H]1O[C@H](CO[C@@H]2OC[C@@H](O)[C@H](O)[C@H]2O)[C@@H](O)[C@H](O)[C@H]1O)[C@H]1CC[C@]2(C)[C@@H]1[C@H](O)C[C@@H]1[C@@]3(C)CC[C@H](O[C@@H]4O[C@H](CO)[C@@H](O)[C@H](O)[C@H]4O[C@@H]4O[C@H](CO)[C@@H](O)[C@H](O)[C@H]4O[C@@H]4OC[C@@H](O)[C@H](O)[C@H]4O)C(C)(C)[C@@H]3CC[C@]12C [Notoginsenoside Fc] | 1131.911 RFU | – | –
39 | CCCCCCCCCCCCCCCCCCCCCC(=O)O[C@H]1CC[C@@]2(C)C(=CC[C@H]3[C@@H]4CC[C@H]([C@H](C)CCCC(C)C)[C@@]4(C)CC[C@@H]32)C1 [Cholesteryl behenate] | 935.1979 RFU | – | –
40 | CC1(C)Oc2cc3oc(-c4cc(O)cc(O)c4)cc3cc2C[C@H]1O [Moracin P] | 751.9577 RFU | – | –
41 | C[C@H](CCC(=O)O)[C@H]1CC[C@H]2[C@@H]3C(=O)C[C@@H]4C[C@H](O)CC[C@]4(C)[C@H]3CC[C@]12C [7-Ketolithocholic acid] | 991.8245 RFU | – | –
42 | Cc1nc2ccccc2o1 [Compound 2-Methylbenzoxazole, 2-Methylbenzoxazole] | 887.776 RFU | – | –
43 | C/C1=C2/[N-][C@H]([C@H](CC(N)=O)[C@@]2(C)CCC(=O)NC[C@H](C)OP(=O)([O-])O[C@H]2[C@@H](O)[C@@H](n3cnc4cc(C)c(C)cc43)O[C@@H]2CO)[C@]2(C)N=C(/C(C)=C3N=C(/C=C4N=C1[C@@H](CCC(N)=O)C\4(C)C)[C@@H](CCC(N)=O)[C@]\3(C)CC(N)=O)[C@@H](CCC(N)=O)[C@]2(C)CC(N)=O.[CH3-].[Co+3] [Methylcobalamin] | 1187.639 RFU | – | –
44 | CCCCCC1=C(C)CCC1=O [Dihydrojasmone] | 884.3631 RFU | – | –
45 | γ-Oryzanol | 1128.852 RFU | – | –
46 | N[C@@H](Cc1c[nH]c2ccccc12)C(=O)O [L-Tryptophan] | 1074.461 RFU and 1239.076 RFU | – | –
47 | CC(=O)c1ccc2c(c1)C=CC(C)(C)O2 [Demethoxyencecalin] | 1050.951 RFU | – | –
48 | CC1(C)CC[C@]2(C(=O)O)CC[C@]3(C)C(=CC[C@@H]4[C@@]5(C)C[C@@H](O)[C@H](O)C(C)(C)[C@@H]5CC[C@]43C)[C@@H]2C1 [Maslinic acid] | 1120.923 RFU | – | –
49 | Lupeol acetate | 966.2407 RFU | – | –
50 | CCCCCCCCCCC/C=C\CCCCC(=O)O [Petroselinic acid] | 886.6723 RFU | – | –
51 | O=c1c(O[C@@H]2O[C@H](CO)[C@H](O)[C@H](O)[C@H]2O[C@@H]2O[C@H](CO)[C@@H](O)[C@H](O)[C@H]2O)c(-c2ccc(O)cc2)oc2cc(O)cc(O)c12 [Panasenoside] | 1093.409 RFU | – | –
52 | O=c1[nH]c2ccccc2o1 [Compound 2-Benzoxazolinone, 2-Benzoxazolinone] | 985.9488 RFU | – | –
53 | COc1cc2c(cc1O)C[C@@H]1NCCc3cc(OC)c(O)c-2c31 [Norisoboldine] | 812.7907 RFU | – | –
54 | CCCCC/C=C/C/C=C/CCCCCCCC(=O)O [Linolelaidic acid] | 831.2921 RFU | – | –
